PubChem BioAssay AID977621 (Broad Institute, 2014)
Results filed as inconclusive are left out. The source made the active and inactive calls.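 Rule for the calls: active = Wild-type ribosome reporter drop at least double the humanized mutant ribosome reporter drop, growth loss under a set limit; inconclusive = no clear call, values can overlap the other calls; inactive = the rest.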

Key:
[1] = test system: E. coli H69 humanized mutant ribosome RFP strain growth, fluorescence, 24 h; test: wild-type E. coli growth inhibition versus H69 humanized strain – H69 mutant RFP, wild-type GFP, cherry-pick, dose response (AID 977621); details: test 2;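 note: wild-type GFP and H69 mutant RFP strains grown together 50/50 in each well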
[2] = test system: E. coli wild-type GFP strain growth, fluorescence, 24 h; test: as above
[3] = E. coli mixed culture, 24 h, measured here: total growth OD600, test 2
[4] = measured here: total growth OD600, test 2

| Compound | AC50 [1] [µM] | AC50 [2] | AC50 [2, 3] [µM] | AC50 [2, 4] [µM] |
| --- | --- | --- | --- | --- |
| Cc1ccc(NC(=O)CN(C)C(=O)Cc2coc3cc(C)c(C)cc23)cc1 | 44 | > 100 µM (inactive) | 42.4 |  |
| CCCc1c(C(=O)Nc2ccc(OC)cc2)cnn1-c1ccccc1 | > 100 | > 100 µM (inactive) | 38.1 |  |
| CCn1c2ccccc2c2cc(NC(=O)c3ccco3)ccc21 | > 100 | > 100 µM (inactive) | 40 |  |
| CC(C)C[C@H]1COc2cc(Br)ccc2S(=O)(=O)N1 | 5.91 |  | > 100 |  |
| O=S1(=O)N[C@H](Cc2ccccc2)COc2cccc(N3CCC[C@H]3CO)c21 | > 100 |  | > 100 |  |
| Cc1ccn2cc(-c3cccc(NC(=O)c4cccs4)c3)nc2c1 | > 100 |  | > 100 |  |
| CCOc1ccccc1N1CCN(C(=O)CCCc2nc3ccccc3s2)CC1 | 43.7 | > 100 µM (inactive) | 37.2 |  |
| COc1ccc(-c2cn3cc(Cl)ccc3n2)cc1OC | 31.4 | > 100 µM (inactive) | 27.2 |  |
| COc1ccccc1-n1c(Cc2ccccc2)nc2ccccc2c1=O | 47.8 | > 100 µM (inactive) |  | 33 |
| O=C(Cn1c(C(=O)NCc2ccco2)cc2sccc21)c1ccccc1 | 47.2 |  | 50 |  |
| Cc1nnn(C23CC4CC(CC(CC(=O)Nc5ccc(C)c(C)c5)(C4)C2)C3)n1 | > 100 | > 100 µM (inactive) |  |  |
| Cc1ccccc1-n1c([C@@H]2C[C@H]2c2ccccc2)n[nH]c1=S | 5.56 |  | 1.6 |  |
| O=C(c1ccc(Cl)cc1)C1CCCN(Cc2cccc3cnccc23)C1 (stereo not drawn) | > 100 | > 100 µM (inactive) |  |  |
| COc1ccccc1CNC(=O)CN1C(=O)NC(c2ccccc2)(c2ccccc2)C1=O | 50.3 |  | > 100 |  |
| COC(=O)c1c(NC(=O)c2ccccc2C(=O)O)sc2c1CCC2 | 45.4 | > 100 µM (inactive) |  |  |
| COc1ccc(NC(=O)C2CC3C=CC2C3)c([N+](=O)[O-])c1 (stereo not drawn) | > 100 | > 100 µM (inactive) |  |  |
| CCN(c1ccccc1)S(=O)(=O)c1cccc(C(=O)NCC(c2cccs2)N(C)C)c1 (stereo not drawn) | > 100 | > 100 µM (inactive) |  |  |
| CCN(CC)CCn1c(SCC(=O)Nc2cccc(OC)c2)nc2c(sc3ccccc32)c1=O | > 100 | > 100 µM (inactive) |  |  |
| CCOc1ccc2oc(C(=O)NC3CCN(Cc4ccccc4)CC3)c(C)c2c1 | 1.3 |  | > 100 |  |
| COc1ccc(-c2nc(NC(C)=O)sc2-c2ccccc2)cc1 | 49.1 |  | 44.1 |  |
| O=C(NC1=NCCS1)c1sc2ccccc2c1Cl | > 100 | > 100 µM (inactive) | 43.6 |  |
| CC(Nc1ncnc2ccccc12)c1ccccc1 (stereo not drawn) | > 100 | > 100 µM (inactive) |  |  |
| C=C(C)Cn1c(=O)c2c(nc3n2CC(C)CN3Cc2ccccc2)n(C)c1=O (stereo not drawn) | > 100 |  | > 100 |  |
| O=C(O)CCC(=O)NCc1c(Cl)cccc1Sc1ccc(Cl)cc1 | > 100 | > 100 µM (inactive) |  |  |

| Compound | AC50 [1] [µM] | AC50 [2] | AC50 [2, 3] [µM] | AC50 [2, 4] [µM] |
| --- | --- | --- | --- | --- |
| CN(c1ccccc1)S(=O)(=O)c1cccc(NC(=O)CCN2C(=O)C3CCCCC3C2=O)c1 (stereo not drawn) | > 100 | > 100 µM (inactive) |  |  |
| COc1cc(OC)nc(Oc2ccccc2C(=O)Oc2ccc(C)cc2)n1 | 51.1 |  | 50.4 |  |
| COc1ccccc1NC(=O)CSc1nccn1Cc1ccc(F)cc1 | 30.8 |  | > 100 |  |
| C[C@]12CCC3C(CC[C@H]4C[C@@H](O)CC[C@]34C)[C@H]1CC[C@H]2O (stereo partly drawn) | > 100 |  |  | 43.3 |
| CCc1ccn2cc(-c3ccc4c(c3)OCO4)nc2c1 | > 100 |  | > 100 |  |
| CN(CCOc1ccc(CC2SC(=O)NC2=O)cc1)c1ccccn1 (stereo not drawn) | > 100 | > 100 µM (inactive) | 40.7 |  |
| C=CCn1c(SCC(=O)Nc2ccc3c(c2)OCCO3)nnc1-c1ccco1 | < 0.6 | > 100 µM (inactive) |  |  |
| O=S(=O)(NC1CC1)c1ccc(S(=O)(=O)N2CCc3ccccc32)cc1 | 8.03 |  | > 100 |  |
| C(=C(c1ccccc1)c1ccccc1)c1ccccn1 | > 100 |  | > 100 |  |
| O=C(CSCc1c(Cl)cccc1Cl)Nc1cccnc1 | 5.01 | > 100 µM (inactive) | > 100 |  |
| CCC1=Nc2cc(C(=O)NCc3cccnc3)ccc2Sc2ccc(C)cc21 | > 100 | > 100 µM (inactive) |  |  |
| COc1ccccc1NS(=O)(=O)c1cc(C(=O)Nc2ccc(S(=O)(=O)Nc3onc(C)c3C)cc2)ccc1C | 4.45 | > 100 µM (inactive) |  |  |
| CCC1(C(=O)OC)CCc2c(cc(OC)c3ccccc23)C1=O (stereo not drawn) | > 100 |  | 42.2 |  |
| COc1ccc(C)cc1NC(=O)c1nn(C)cc1Br | > 100 | > 100 µM (inactive) | 33.9 |  |
| Cc1ccc(S(=O)(=O)Nc2ccccc2CNc2ccccn2)cc1 | 50.6 | > 100 µM (inactive) | 48.9 |  |
| C=C1c2cc3c(cc2NC(=S)N1Cc1ccccc1)OCO3 | > 100 |  | < 0.6 |  |
| O=S(=O)(c1ccccc1)N1C[C@@H]2[C@H](c3ccccc31)[C@H](CO)N2Cc1ccccc1 | > 100 | > 100 µM (inactive) |  |  |
| COC(=O)C[C@H]1C[C@@H]2c3cc(NC(=O)Nc4ccc(C(F)(F)F)cc4)ccc3O[C@@H]2[C@H](CO)O1 | > 100 | > 100 µM (inactive) | > 100 |  |
| NC(=O)c1sc2nnc(-c3ccccc3)c(-c3ccccc3)c2c1N | > 100 | > 100 µM (inactive) |  |  |
| O=C(O)C1CCCCC1C(=O)Nc1ccc(OCc2ccccc2)cc1 (stereo not drawn) | > 100 | > 100 µM (inactive) |  |  |
| O=C(CSc1nc2scc(-c3ccccc3)c2c(=O)[nH]1)N1CCCCC1 | > 100 | > 100 µM (inactive) | 44.2 |  |
| CN(C)S(=O)(=O)c1cccc(C(=O)Nc2ccc(C(=O)Nc3cccc(S(N)(=O)=O)c3)cc2)c1 | > 100 | > 100 µM (inactive) |  |  |
| O=S(=O)(NCC1CCCO1)c1ccc(-c2ccc(Cl)cc2)cc1 (stereo not drawn) | > 100 | > 100 µM (inactive) | 44.5 |  |
